The subject of one assay is PC-3. As to the kind of experiment: Antiproliferative activity against human PC3 cells assessed as inhibition of cell growth.
A further assay deals with MGC-803. As to the kind of experiment: Antiproliferative activity against human MGC803 cells assessed as inhibition of cell growth by MTT assay. (Tetrazolium assays rely on reduction of a dye to a coloured formazan, in cell work by metabolically active cells.)
For another assay, the system named is U-87 MG. Put plainly: Antiproliferative activity against human U87MG cells assessed as inhibition of cell growth.
Another assay concerns MCF7. Put plainly: Antiproliferative activity against human MCF7 cells assessed as inhibition of cell growth.
Another assay concerns HT-29. Put plainly: Antiproliferative activity against human HT-29 cells assessed as inhibition of cell growth.
Another assay concerns PANC-1. Put plainly: Antiproliferative activity against human PANC1 cells assessed as inhibition of cell growth.

The values below come from ChEMBL document CHEMBL4616641, “4-Hydroxy-3-methylbenzofuran-2-carbohydrazones as novel LSD1 inhibitors” (Bioorg Med Chem Lett, 2020).

By IC50 is commonly meant the concentration that inhibits the measured activity by half. With `Cc1c(C(=O)N/N=C\c2cccs2)oc2cccc(O)c12`, the IC50 with PC-3 is 22.3 µM.
For `Cc1c(C(=O)N/N=C\c2cc(Cl)cc(Cl)c2O)oc2cccc(O)c12`, the IC50 amounted to 9.59 µM in the assay with PC-3 and 4.36 µM with MGC-803.
Take `Cc1c(C(=O)N/N=C\c2cccnc2)oc2cccc(O)c12`: in the assay with PC-3, the concentration for half-maximal inhibition (IC50) is at least 40 µM.
Regarding `Cc1c(C(=O)N/N=C\c2cc(F)ccc2O)oc2cccc(O)c12`, the IC50 in the assay on PC-3 was 3.17 µM; with MGC-803, 5.23 µM.
For the molecule `Cc1c(C(=O)N/N=C\c2cccc(Br)c2O)oc2cccc(O)c12`, the values for the 50% inhibitory concentration (IC50) in the assay on PC-3 and in the assay on MGC-803 were 16.6 µM and 14.2 µM, respectively.
With `Cc1c(C(=O)N/N=C\c2ccc(C(F)(F)F)cc2)oc2cccc(O)c12`, the IC50 with PC-3 is at least 40 µM.
On to `Cc1ccc(O)c(/C=N\NC(=O)c2oc3cccc(O)c3c2C)c1`, for which the IC50 is 7.35 µM in the assay on PC-3 and 5.99 µM in the assay on MGC-803.
Consider `Cc1c(C(=O)N/N=C\c2c(O)cccc2F)oc2cccc(O)c12`, for which the IC50 in the assay on PC-3 is 8.05 µM; with MGC-803, 10.8 µM; in the assay on U-87 MG it was 9.27 µM; in the assay with MCF7, 1.75 µM; in the assay on HT-29, 2.2 µM; in the assay on PANC-1 it was 8.23 µM.
In the case of `COc1ccccc1/C=N\NC(=O)c1oc2cccc(O)c2c1C`, the IC50 in the assay with PC-3 turned out to be 32.7 µM.
On the same count and under the same terms, the same measure for `Cc1c(C(=O)N/N=C\c2cc(O)ccc2O)oc2cccc(O)c12`: 95.5 µM; for `Cc1c(C(=O)N/N=C\c2ccccc2)oc2cccc(O)c12`: 29.2 µM; for `Cc1c(C(=O)N/N=C\c2cccc(O)c2)oc2cccc(O)c12`: 17.6 µM.
In the case of `Cc1c(C(=O)N/N=C\c2ccccn2)oc2cccc(O)c12`, in the assay with PC-3, the IC50 was at least 40 µM.
Take `Cc1c(C(=O)N/N=C\c2cccc(O)c2O)oc2cccc(O)c12`: the IC50 stood at 12.2 µM in the assay on PC-3 and 5.03 µM in the assay with MGC-803.
Regarding `Cc1c(C(=O)N/N=C\c2ccc(O)cc2)oc2cccc(O)c12`, the IC50 in the assay with PC-3 stood at 21.7 µM.
Still for that read-out and setting: the same measure for `Cc1c(C(=O)N/N=C\c2cccc(F)c2)oc2cccc(O)c12`: at least 40 µM.
For the molecule `Cc1c(C(=O)N/N=C\c2cccc(F)c2O)oc2cccc(O)c12`, the IC50 is 12.7 µM with PC-3 and 8.35 µM with MGC-803.
On to `Cc1c(C(=O)N/N=C\c2ccncc2)oc2cccc(O)c12`, for which the IC50 with PC-3 is at least 40 µM.
As to `Cc1c(C(=O)N/N=C\c2ccc(O)c(O)c2O)oc2cccc(O)c12`, the IC50 in the assay with PC-3 is at least 40 µM; with MGC-803, 18.1 µM; in the assay on U-87 MG, 5.96 µM; in the assay on MCF7, 17.1 µM; in the assay with HT-29, above 20 µM; in the assay with PANC-1, above 20 µM.
On to `Cc1c(C(=O)N/N=C\c2c(O)cccc2Cl)oc2cccc(O)c12`, for which the IC50 in the assay with PC-3 was 18.7 µM.
As to `Cc1c(C(=O)N/N=C\c2ccc(F)cc2)oc2cccc(O)c12`, the IC50 in the assay on PC-3 was at least 40 µM.
On to `Cc1c(C(=O)N/N=C\c2ccccc2F)oc2cccc(O)c12`, for which, in the assay on PC-3, the IC50 was at least 40 µM.
As to `Cc1c(C(=O)N/N=C\c2cc(Cl)ccc2O)oc2cccc(O)c12`, the IC50 in the assay on PC-3 amounted to 3.12 µM; with MGC-803, 4.16 µM.
Consider `Cc1c(C(=O)N/N=C\c2ccc(Br)cc2O)oc2cccc(O)c12`, for which the values for the IC50 in the assay with PC-3 and in the assay on MGC-803 were 2.05 µM and 5.46 µM, respectively.
Consider `COc1cccc(/C=N\NC(=O)c2oc3cccc(O)c3c2C)c1`, for which, in the assay with PC-3, the IC50 was at least 40 µM.
As for `Cc1c(C(=O)N/N=C\c2ccc(O)cc2O)oc2cccc(O)c12`, the IC50 in the assay on PC-3 was found to be 14.8 µM; in the assay with MGC-803 it was 7.33 µM; with U-87 MG, 4.39 µM; with MCF7 it was 2.08 µM; in the assay on HT-29, 2.88 µM; in the assay with PANC-1, 9.77 µM.
As for `Cc1c(C(=O)N/N=C\c2ccccc2C(F)(F)F)oc2cccc(O)c12`, the IC50 in the assay on PC-3 was 26.2 µM.
Still for that read-out and setting: as for `Cc1c(C(=O)N/N=C\c2cc([N+](=O)[O-])ccc2O)oc2cccc(O)c12`, the figure is 17.1 µM.
Turning to `Cc1c(C(=O)N/N=C\c2ccccc2O)oc2cccc(O)c12`, the half-maximal inhibitory concentration (IC50) with PC-3 was 8.35 µM; in the assay with MGC-803, 10.6 µM.
With `Cc1c(C(=O)N/N=C\c2ccco2)oc2cccc(O)c12`, the IC50 with PC-3 is at least 40 µM.
